Results taken from patent US9381200B2, “Nitrogen containing compounds” (WOCKHARDT LIMITED, priority 2011, dated 2016).
≈ marks a conversion by molar mass, not a printed value. Like-named read-outs stand apart in the source and are kept apart here.

Key:
Format in all cases: cell-based
[1] = tested on: K. pneumoniae ATCC 700603; assay: Antibacterial activity of Ceftazidime in presence of compounds of the invention (MIC); details: Klebsiella pneumoniae, ATCC700603; Table 6; K. pneumoniae ATCC 700603 (ESBL type: Class A); Ceftazidime alone or with compound at fixed 4 mcg/ml as named in the composition
Method: (§1) The biological activity of representative compounds according to the invention against various bacterial strains was investigated. In a typical study, overnight grown bacterial cultures were diluted appropriately and inoculated on the agar media containing doubling dilutions of the test compounds. Observation for growth or no growth was performed after 16-20 hours of incubation at 35±2° C. in ambient air. The overall procedure was performed as per Clinical and Laboratory Standards Institute (CLSI) recommendations (Clinical and Laboratory Standards Institute (CLSI), Performance Standards for Antimicrobial Susceptibility Testing, 20th Informational Supplement, M 100-S20, Volume 30, No. 1, 2010).
(§2) The antibacterial activity of representative compounds according to the invention was also investigated in combination with at least one antibacterial agent using the above study protocol and the results are given Table 6.

[2] = tested on: P. vulgaris S-137B; assay: as above; details: Proteus vulgaris, S137B; Table 6; P. vulgaris S-137B (ESBL type: Class C); Ceftazidime alone or with compound at fixed 4 mcg/ml as named in the composition
Method: as §1, §2

[3] = tested on: E. coli M 50; assay: Antibacterial activity (MIC), agar dilution per CLSI; details: Escherichia coli, read-out: MIC
How it was run: (§3)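 Agar dilution per CLSI M100-S20: diluted overnight cultures inoculated onto agar containing doubling dilutions of compound. Growth scored after 16–20 h at 35±2 °C in ambient air. MIC reported in mcg/ml.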

[4] = tested on: P. aeruginosa Ps 21; assay: Antibacterial activity (MIC) against MDR Gram negative strains; details: Pseudomonas aeruginosa, PS21; Table 5; P. aeruginosa Ps 21; read-out: MIC
How it was run: as §3

[5] = tested on: K penumoniae H 523; assay: as above; details: Table 4; K penumoniae H 523, KPC ESBL, MDR; read-out: MIC
How it was run: as §3

[6] = tested on: E. Coli W 13351; assay: as above; details: Escherichia coli; Table 4; E. Coli W 13351, Class A ESBL, MDR; read-out: MIC
How it was run: as §3

[7] = tested on: E. Coli M 3; assay: as above; details: Escherichia coli; Table 5; E. Coli M 3, Class B ESBL, MDR; read-out: MIC
How it was run: as §3

[8] = tested on: E. Coli H 484; assay: as above; details: Escherichia coli; Table 4; E. Coli H 484, Class C ESBL, MDR; read-out: MIC
How it was run: as §3

[9] = tested on: P. aeruginosa ATCC 27853; assay: as above; details: Pseudomonas aeruginosa, ATCC27853; Table 5; P. aeruginosa ATCC 27853; read-out: MIC
How it was run: as §3

[10] = tested on: P. aeruginosa Ps 32; assay: as above; details: Pseudomonas aeruginosa, PS32; Table 5; P. aeruginosa Ps 32; read-out: MIC
How it was run: as §3

[11] = tested on: K penumoniae H 525; assay: as above; details: Table 4; K penumoniae H 525, KPC ESBL, MDR; read-out: MIC
How it was run: as §3

[12] = tested on: E. Coli W 13353; assay: as above; details: Escherichia coli; Table 4; E. Coli W 13353, Class A ESBL, MDR; read-out: MIC
How it was run: as §3

[13] = tested on: E. Coli W 13352; assay: as above; details: Escherichia coli; Table 4; E. Coli W 13352, Class A ESBL, MDR; read-out: MIC
How it was run: as §3

[14] = tested on: K. penumoniae S 48; assay: as above; details: Table 5; K. penumoniae S 48, Class B ESBL, MDR; read-out: MIC
How it was run: as §3

[15] = tested on: E. Coli M 44; assay: as above; details: Escherichia coli; Table 5; E. Coli M 44, Class B ESBL, MDR; read-out: MIC
How it was run: as §3

[16] = tested on: E. Coli B 89; assay: as above; details: Escherichia coli; Table 4; E. Coli B 89, Class C ESBL, MDR; read-out: MIC
How it was run: as §3

[17] = tested on: K penumoniae H 521; assay: as above; details: Table 4; K penumoniae H 521, KPC ESBL, MDR; read-out: MIC
How it was run: as §3

[18] = tested on: E. coli NCTC 13351; assay: Antibacterial activity (MIC), agar dilution per CLSI; details: Escherichia coli, NCTC13351, Table 3, E. coli NCTC 13351 expressing ESBL, 16-20 hours, 35±2° C., read-out: MIC
How it was run: (§4)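 Agar dilution MIC per CLSI: overnight cultures diluted and inoculated onto agar containing doubling dilutions of compound. Growth/no growth read after 16-20 h at 35±2° C in ambient air. Strains express ESBL.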

[19] = tested on: E. coli 7 MP; assay: as above; details: Escherichia coli, Table 3, E. coli 7 MP expressing ESBL, read-out: MIC
How it was run: as §4

[20] = tested on: A. baumannii S-334; assay: Antibacterial activity of sulbactam / Cefepime combinations with a compound of the invention (MIC); details: Acinetobacter baumannii, S334; footnotes of Tables 7 and 8; A. baumannii S-334; substance used alone; read-out: Standalone MIC
Method: as §1

[21] = tested on: A. baumannii 1460648; assay: as above; details: Acinetobacter baumannii; footnotes of Tables 7 and 8; A. baumannii 1460648; substance used alone; read-out: Standalone MIC
Method: as §1

[22] = tested on: A. baumannii G-165; assay: as above; details: Acinetobacter baumannii, G165; footnotes of Tables 7 and 8; A. baumannii G-165; substance used alone; read-out: Standalone MIC
Method: as §1

[23] = tested on: A. baumannii J-143; assay: as above; details: Acinetobacter baumannii, J143; footnotes of Tables 7 and 8; A. baumannii J-143; substance used alone; read-out: Standalone MIC
Method: as §1

[24] = M50, Table 4, E. Coli M 50, Class C ESBL, MDR

CC(C)(O/N=C(\C(=O)N[C@@H]1C(=O)N2C(C(=O)[O-])=C(C[n+]3ccccc3)CS[C@H]12)c1csc(N)n1)C(=O)O [Ceftazidime, reference compound]
MIC [1]: > 32 µg/mL | MIC [2]: > 32 µg/mL | MIC [3, 24]: > 32 µg/mL | MIC [4]: > 32 µg/mL | MIC [5]: > 32 µg/mL | MIC [6]: 32 µg/mL (≈ 58.5 µM) | MIC [7]: > 32 µg/mL | MIC [8]: > 32 µg/mL | MIC [9]: 1 µg/mL (≈ 1.83 µM) | MIC [10]: > 32 µg/mL | MIC [11]: > 32 µg/mL | MIC [12]: 32 µg/mL (≈ 58.5 µM) | MIC [13]: > 32 µg/mL | MIC [14]: > 32 µg/mL | MIC [15]: > 32 µg/mL | MIC [16]: > 32 µg/mL | MIC [17]: > 32 µg/mL

O=C(NNC(=O)[C@@H]1CC[C@@H]2CN1C(=O)N2OS(=O)(=O)O)[C@@H]1CCNC1 [Example 3, trans-sulfuric acid mono-[2-(N′—[(R)-pyrrolidin-3-carbonyl]-hydrazinocarbonyl)-7-oxo-1,6-diaza-bicyclo[3.2.1]oct-6-yl]ester]
MIC [18]: 0.25 µg/mL (≈ 0.662 µM) | MIC [19]: 1 µg/mL (≈ 2.65 µM) | MIC [20]: > 32 µg/mL | MIC [21]: > 32 µg/mL | MIC [22]: > 32 µg/mL | MIC [23]: > 32 µg/mL | MIC ([3]; M50, Table 3, E. coli M 50 expressing ESBL, agar dilution): 0.25 µg/mL (≈ 0.662 µM) | MIC [3, 24]: 0.5 µg/mL (≈ 1.32 µM) | MIC [4]: 4 µg/mL (≈ 10.6 µM) | MIC [5]: 0.5 µg/mL (≈ 1.32 µM) | MIC [6]: 0.5 µg/mL (≈ 1.32 µM) | MIC [7]: 0.5 µg/mL (≈ 1.32 µM) | MIC [8]: 0.5 µg/mL (≈ 1.32 µM) | MIC [9]: 2 µg/mL (≈ 5.3 µM) | MIC [10]: 4 µg/mL (≈ 10.6 µM) | MIC [11]: 0.5 µg/mL (≈ 1.32 µM) | MIC [12]: 0.25 µg/mL (≈ 0.662 µM) | MIC [13]: 0.5 µg/mL (≈ 1.32 µM) | MIC [14]: 0.5 µg/mL (≈ 1.32 µM) | MIC [15]: 0.12 µg/mL (≈ 0.318 µM) | MIC [16]: 0.25 µg/mL (≈ 0.662 µM) | MIC [17]: 0.5 µg/mL (≈ 1.32 µM)
